Source: US8163940B2, “Method for preparation of amorphous, anhydrous crystalline or hydrated crystalline docetaxel” (Samyang Genex Corporation, priority 2006, dated 2012)
“And” between values parts separate entries of the source, which are not always exact repeats. Equal entries are not always repeated.

Assay: Stability of docetaxel dissolved and left standing in alcohols at 50° C. (HPLC purity and degradation degree)
Type: physicochemical
Conditions: dissolution and standing at 50° C.
Protocol: The purity and recovery rate of docetaxel in the present specification were calculated by quantity analysis using HPLC under the conditions of Table 2.
To evaluate the stability of docetaxel in the case that hydrated crystalline docetaxel is prepared by dissolution in alcohols at a high temperature, methanol and ethanol were each used as an organic solvent and dissolution temperature and standing temperature were 50° C., and change in purity of docetaxel and degradation degree were measured after letting it stand for 0, 1, 5, 10, and 24 hours.

CC(=O)O[C@@]12CO[C@@H]1C[C@H](O)[C@@]1(C)C(=O)[C@H](O)C3=C(C)[C@@H](OC(=O)[C@H](O)[C@@H](NC(=O)OC(C)(C)C)c4ccccc4)C[C@@](O)([C@@H](OC(=O)c4ccccc4)[C@H]21)C3(C)C [docetaxel]
7-epi-docetaxel Amounts Produced (EtOH, 0 hr): 0 area %
Change in Purity of Docetaxel (EtOH, 0 hr): 99.7480%
7-epi-docetaxel Amounts Produced (EtOH, 1 hr): 0.4494 area %
Change in Purity of Docetaxel (EtOH, 1 hr): 99.2959%
7-epi-docetaxel Amounts Produced (EtOH, 5 hr): 1.8948 area %
Change in Purity of Docetaxel (EtOH, 5 hr): 97.8546%
7-epi-docetaxel Amounts Produced (EtOH, 10 hr): 2.9451 area %
Change in Purity of Docetaxel (EtOH, 10 hr): 96.8045%
7-epi-docetaxel Amounts Produced (EtOH, 24 hr): 4.5544 area %
Change in Purity of Docetaxel (EtOH, 24 hr): 95.1952%
7-epi-docetaxel Amounts Produced (MeOH, 0 hr): 0 area %
Change in Purity of Docetaxel (MeOH, 0 hr): 99.7469%
7-epi-docetaxel Amounts Produced (MeOH, 1 hr): 4.0163 area %
Change in Purity of Docetaxel (MeOH, 1 hr): 95.7% and 95.7399%
7-epi-docetaxel Amounts Produced (MeOH, 5 hr): 17.2282 area %
Change in Purity of Docetaxel (MeOH, 5 hr): 81.8743%
7-epi-docetaxel Amounts Produced (MeOH, 10 hr): 28.4728 area %
Change in Purity of Docetaxel (MeOH, 10 hr): 69.3707%
7-epi-docetaxel Amounts Produced (MeOH, 24 hr): 41.5352 area %
Change in Purity of Docetaxel (MeOH, 24 hr): 50.7338%
